ChEMBL document CHEMBL6078688, “Discovery of Novel MyD88 Inhibitor A5S to Alleviate Acute Lung Injury with Favorable Drug-like Properties” (J Med Chem, 2024)
pIC50, pKd: −log10 of the molar value. The source made the active and inactive calls. The rule behind the calls is not given here.

Experiments:
[1] = Stability of compound in rat serum measured after 6 hrs; format: ADME, cell-free
[2] = AUC (0 to infinity) in Sprague-Dawley rat at 1 mg/kg,iv administration measured upto 24 hrs by LC-MS/MS analysis; format: ADME, organism-based; conditions: in vivo
[3] = Tmax in Sprague-Dawley rat at 1 mg/kg,iv administration measured upto 24 hrs by LC-MS/MS analysis; format: ADME, organism-based; conditions: in vivo
[4] = Tmax in Sprague-Dawley rat at 50 mg/kg,po administration measured upto 24 hrs by LC-MS/MS analysis; format: ADME, organism-based; conditions: in vivo
[5] = Stability of compound in enzyme free simulated intestinal fluid measured upto 12 hrs; format: physicochemical; conditions: simulated gi fluid
[6] = Half life in Sprague-Dawley rat at 1 mg/kg,iv administration measured upto 24 hrs by LC-MS/MS analysis; format: ADME, organism-based; conditions: in vivo
[7] = Stability of compound in simulated intestinal fluid measured upto 12 hrs; format: physicochemical; conditions: simulated gi fluid
[8] = Stability of compound in simulated gastric fluid measured upto 12 hrs; format: physicochemical; conditions: simulated gi fluid
[9] = Oral bioavailability in Sprague-Dawley rat at 50 mg/kg administration measured upto 24 hrs by LC-MS/MS analysis; format: ADME, organism-based; conditions: in vivo
[10] = Cmax in Sprague-Dawley rat at 1 mg/kg,iv administration measured upto 24 hrs by LC-MS/MS analysis; format: ADME, organism-based; conditions: in vivo
[11] = AUC (0 to t) in Sprague-Dawley rat at 1 mg/kg,iv administration measured upto 24 hrs by LC-MS/MS analysis; format: ADME, organism-based; conditions: in vivo
[12] = Stability of compound in enzyme free simulated gastric fluid measured upto 12 hrs; format: physicochemical; conditions: simulated gi fluid
[13] = AUC (0 to t) in Sprague-Dawley rat at 50 mg/kg,po administration measured upto 24 hrs by LC-MS/MS analysis; format: ADME, organism-based; conditions: in vivo
[14] = Cmax in Sprague-Dawley rat at 50 mg/kg,po administration measured upto 24 hrs by LC-MS/MS analysis; format: ADME, organism-based; conditions: in vivo
J774.A1 [15] = assay: Cytotoxicity against mouse J774.A1 cells at 10 uM by MTT assay; format: toxicity, cell-based; conditions: j774.a1, 10 µM
THP-1 = assay: Anti-inflammatory activity in LPS-induced human THP-1 cells assessed as inhibition of IL-6 production at 10 uM by ELISA relative to control; format: functional
[16] = Drug concentration in Sprague-Dawley rat serum at 15 mg/kg,iv administration measured upto 24 hrs by LC-MS/MS analysis; format: ADME, organism-based; conditions: read-out: Ct
J774.A1 [17] = assay: Anti-inflammatory activity in LPS-induced mouse J774.A1 cells assessed as inhibition of TNF-alpha production at 10 uM by ELISA; format: functional, cell-based
[18] = biological target: Myeloid differentiation primary response protein MyD88 (Homo sapiens, UniProt Q99836); assay: Binding affinity to MYD88 (unknown origin) assessed as dissociation constant by biolayer interferometry
J774.A1 [19] = assay: Anti-inflammatory activity in LPS-induced mouse J774.A1 cells assessed as inhibition of IL-6 production at 10 uM by ELISA; format: functional, cell-based
Mus musculus [20] = assay: Antiinflammatory activity against LPS induced acute lung injury C57BL/6 mouse model assessed as reduction in of leukocytes in alveolar region at 20 mg/kg,po administrated with compound for 30 mins followed by LPS treatment and measured after 6 hrs by immunohistochemical staining based analysis; format: functional, organism-based
Mus musculus [21] = assay: Antiinflammatory activity against LPS induced acute lung injury C57BL/6 mouse model assessed as reduction in histopathological change in lung at 20 mg/kg,po administrated with compound for 30 mins followed by LPS treatment and measured after 6 hrs by H and E staining based analysis; format: functional, organism-based; conditions: time 6.5 hrs
Peritoneal macrophage = assay: Antiinflammatory activity in LPS-induced mouse Peritoneal macrophage cells assessed as inhibition of IFN-beta mRNA level at 1.25 to 5 uM by RT-PCR analysis; format: functional, cell-based; conditions: dose 1.25-5 µM
[22] = biological target: TLR4-MyD88 (Mus musculus) (UniProt Q9QUK6+P22366); assay: Inhibition of MYD88/TLR4 protein-protein interaction in LPS-induced mouse J774.A1 cells at 20 uM incubated for 2 hrs by coimmunoprecipitation analysis; format: cell-based
J774.A1 [23] = assay: Cytotoxicity against mouse J774.A1 cells at 3 to 12 uM by MTT assay; format: toxicity, cell-based; conditions: j774.a1, 12 µM, dose 3-12 µM
J774.A1 [24] = assay: Inhibition of NF-kappaB signalling pathway in LPS-induced mouse J774.A1 cells assessed as upregulation of IkappaB-alpha expression by Western blotting analysis; format: cell-based
J774.A1 [25] = assay: Inhibition of NF-kappaB signalling pathway in LPS-induced mouse J774.A1 cells assessed as downregulation of p65 phosphorylation by Western blotting analysis; format: cell-based
J774.A1 [26] = assay: Anti-inflammatory activity in LPS-induced mouse J774.A1 cells assessed as inhibition of IL-6 production by ELISA; format: functional, cell-based
J774.A1 [27] = assay: Anti-inflammatory activity in LPS-induced mouse J774.A1 cells assessed as inhibition of TNF-alpha production by ELISA; format: functional, cell-based
[28] = biological target: Toll-like receptor 4/Ly96 (Mus musculus) (UniProt Q9QUK6+Q9JHF9); assay: Inhibition of MD2/TLR4 protein-protein interaction in LPS-induced mouse J774.A1 cells at 20 uM incubated for 2 hrs by coimmunoprecipitation analysis; format: cell-based

Sequence of Myeloid differentiation primary response protein MyD88 (Q99836 whole entry): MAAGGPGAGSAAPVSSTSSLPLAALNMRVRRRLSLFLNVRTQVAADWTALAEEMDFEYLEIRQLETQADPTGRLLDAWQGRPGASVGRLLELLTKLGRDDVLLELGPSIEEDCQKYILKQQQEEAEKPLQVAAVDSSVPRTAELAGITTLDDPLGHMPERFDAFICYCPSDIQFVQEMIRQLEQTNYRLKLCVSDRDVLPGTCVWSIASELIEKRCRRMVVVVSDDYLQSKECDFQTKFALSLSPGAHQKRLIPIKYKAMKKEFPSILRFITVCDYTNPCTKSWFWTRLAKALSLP
Sequence of TLR4-MyD88 (Mus musculus) (P22366 whole entry, looked up): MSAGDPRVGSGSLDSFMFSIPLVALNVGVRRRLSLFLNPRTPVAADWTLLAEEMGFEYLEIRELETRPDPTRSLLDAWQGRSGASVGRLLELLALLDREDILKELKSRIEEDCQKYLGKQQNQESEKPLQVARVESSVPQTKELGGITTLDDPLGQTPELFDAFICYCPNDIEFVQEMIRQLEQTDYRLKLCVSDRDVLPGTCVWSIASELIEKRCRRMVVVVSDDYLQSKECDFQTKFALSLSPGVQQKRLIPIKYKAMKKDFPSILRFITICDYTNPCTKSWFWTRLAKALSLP
Sequence of TLR4-MyD88 (Mus musculus) (Q9QUK6 whole entry, looked up): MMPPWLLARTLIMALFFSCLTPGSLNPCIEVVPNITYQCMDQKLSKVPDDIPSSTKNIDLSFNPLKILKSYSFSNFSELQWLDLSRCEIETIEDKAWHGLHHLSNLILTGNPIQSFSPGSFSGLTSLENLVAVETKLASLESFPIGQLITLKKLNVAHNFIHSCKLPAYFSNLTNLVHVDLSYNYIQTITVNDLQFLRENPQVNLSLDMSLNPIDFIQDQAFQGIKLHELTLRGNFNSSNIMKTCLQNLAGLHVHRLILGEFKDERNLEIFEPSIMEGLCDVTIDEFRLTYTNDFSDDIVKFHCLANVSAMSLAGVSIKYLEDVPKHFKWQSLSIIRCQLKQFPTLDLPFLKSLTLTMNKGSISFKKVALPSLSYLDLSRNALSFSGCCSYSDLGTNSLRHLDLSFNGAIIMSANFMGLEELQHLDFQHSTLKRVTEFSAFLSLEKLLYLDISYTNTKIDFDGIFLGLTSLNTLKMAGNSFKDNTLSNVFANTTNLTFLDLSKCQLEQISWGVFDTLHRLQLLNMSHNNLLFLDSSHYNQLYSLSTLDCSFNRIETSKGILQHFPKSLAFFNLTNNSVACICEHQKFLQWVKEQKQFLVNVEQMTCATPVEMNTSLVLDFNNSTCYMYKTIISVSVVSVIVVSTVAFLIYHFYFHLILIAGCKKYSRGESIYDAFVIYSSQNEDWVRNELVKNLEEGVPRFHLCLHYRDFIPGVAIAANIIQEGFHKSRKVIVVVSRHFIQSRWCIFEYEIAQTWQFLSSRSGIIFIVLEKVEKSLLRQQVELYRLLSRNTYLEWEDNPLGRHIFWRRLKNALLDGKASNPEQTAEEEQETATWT

SMILES	Activity (J774.A1 [15])	inhibition at 10 µM (THP-1)	also measured
COc1ccc(-c2csc(NC(=O)CCN3CCN(Cc4cccc([N+](=O)[O-])c4)CC3)n2)cc1OC	–	–	Stability [1]: Unstable; AUC(0-inf) [2]: 79.9 ng·h/mL; Tmax [3]: 4.8 min; Tmax [4]: 15 min; Stability [5]: Stable; half-life [6]: 4.8 min; Stability [7]: Stable; Stability [8]: Stable; bioavailability [9]: 0.13%; Cmax [10]: 297 ng/mL; AUC(0-t) at 24 h [11]: 79.1 ng·h/mL; Stability [12]: Stable; AUC(0-t) at 24 h [13]: 4.38 ng·h/mL; Cmax [14]: 3.99 ng/mL
CC(c1cccc(F)c1)C(O)CN1CCN(CC(O)COc2ccc(Cl)cc2)CC1 (stereo not given)	Non-toxic	55.5%	–
CC(c1ccccc1)C(O)CN1CCN(CC(O)COc2ccc(Br)cc2)CC1 (stereo not given)	Non-toxic	47.9%	–
OC(COc1ccccc1)CN1CCN(Cc2cc3ccccc3[nH]2)CC1 (stereo not given)	Non-toxic	74%	–
COc1ccc(OCC(O)CN2CCN(CC(O)C(C)c3cccc(F)c3)CC2)cc1 (stereo not given)	Non-toxic	37.8%	–
COc1ccccc1OCC(O)CN1CCN(CC(O)C(C)c2ccccc2)CC1 (stereo not given)	Non-toxic	27.8%	–
Cc1ccccc1OCC(O)CN1CCN(Cc2cc3ccccc3[nH]2)CC1 (stereo not given)	Non-toxic	75.4%	–
CC(c1ccccc1)C(O)CN1CCN(CC(O)COc2ccc(C(C)(C)C)cc2)CC1 (stereo not given)	Toxic	46.4%	–
COc1ccccc1OCC(O)CN1CCN(Cc2cc3ccccc3[nH]2)CC1 (stereo not given)	Non-toxic	62.6%	–
CC(c1ccccc1)C(O)CN1CCN(CC(O)COc2ccc(Cl)cc2)CC1 (stereo not given)	Non-toxic	14%	–
O=C(CCN1CCN(Cc2ccccc2)CC1)Nc1nc(-c2ccccc2)cs1	–	–	concentration at 24 h [16]: 1190 ng/mL
CC(c1cccc(F)c1)C(O)CN1CCN(CC(O)COc2ccc(Br)cc2)CC1 (stereo not given)	Non-toxic	43.1%	–
CC(c1cccc(F)c1)C(O)CN1CCN(CC(O)COCc2ccccc2)CC1 (stereo not given)	Non-toxic	30.4%	–
CC(c1ccccc1)C(O)CN1CCN(CC(O)COc2ccccc2)CC1 (stereo not given)	Non-toxic	30.5%	–
CC(c1cccc(F)c1)C(O)CN1CCN(CC(O)COc2ccc(F)cc2)CC1 (stereo not given)	Non-toxic	42.1%	–
COc1ccc(OCC(O)CN2CCN(CC(O)C(C)c3ccccc3)CC2)cc1 (stereo not given)	Non-toxic	46.8%	–
CC(c1ccccc1)C(O)CN1CCN(CC(O)COCc2ccccc2)CC1 (stereo not given)	Non-toxic	20%	–

SMILES	Activity (J774.A1 [15])	inhibition at 10 µM (THP-1)	also measured
CC(c1ccccc1)C(O)CN1CCN(CC(O)COc2ccc(F)cc2)CC1 (stereo not given)	Non-toxic	4.5%	–
OC(COc1ccc(F)cc1)CN1CCN(Cc2cc3ccccc3[nH]2)CC1 (stereo not given)	Non-toxic	76.3%	–
CC(C)(C)c1ccc(OCC(O)CN2CCN(Cc3cc4ccccc4[nH]3)CC2)cc1 (stereo not given)	Toxic	5.83%	–
CC(c1cccc(F)c1)C(O)CN1CCN(CC(O)COc2ccc(C(C)(C)C)cc2)CC1 (stereo not given)	Non-toxic	44.3%	–
Cc1c(CN2CCN(C3CCNC3)CC2)[nH]c2ccc(F)cc12 (stereo not given)	Non-toxic	71.7%	inhibition (J774.A1 [17]): Active; pKd [18]: 3.56; inhibition (J774.A1 [19]): Active
OC(COc1ccc(Cl)cc1)CN1CCN(Cc2cc3ccccc3[nH]2)CC1 (stereo not given)	Non-toxic	85.3%	–
OC(COCc1ccccc1)CN1CCN(Cc2cc3ccccc3[nH]2)CC1 (stereo not given)	Non-toxic	72.7%	–
C[C@@H]1C[C@H]2[C@@H]3CCC4=CC(=O)C=C[C@]4(C)[C@@]3(F)[C@@H](O)C[C@]2(C)[C@@]1(O)C(=O)CO	–	–	Activity (Mus musculus [20]): Active; Activity (Mus musculus [21]): Active
Cc1ccccc1OCC(O)CN1CCN(CC(O)C(C)c2ccccc2)CC1 (stereo not given)	Non-toxic	21.5%	–
COc1ccc(OCC(O)CN2CCN(Cc3cc4ccccc4[nH]3)CC2)cc1 (stereo not given)	Non-toxic	69%	–
Cc1ccccc1OCC(O)CN1CCN(CC(O)C(C)c2cccc(F)c2)CC1 (stereo not given)	Non-toxic	46.2%	–
COc1ccc(C(=O)/C=C/c2cccc(OC)c2OC)cc1	–	–	Activity (Peritoneal macrophage): Active
OC(COc1ccc(Br)cc1)CN1CCN(Cc2cc3ccccc3[nH]2)CC1 (stereo not given)	Non-toxic	84.2%	pKd [18]: 4.07
O[C@@H](COc1ccc(Br)cc1)CN1CCN(Cc2cc3ccccc3[nH]2)CC1	–	–	inhibition [22]: Active; Activity (J774.A1 [23]): Non-toxic; inhibition (J774.A1 [24]): Active; inhibition (J774.A1 [25]): Active; pIC50 (J774.A1 [26]): 6.09; pIC50 (J774.A1 [27]): 5.43; inhibition [28]: inactive
CC(c1cccc(F)c1)C(O)CN1CCN(CC(O)COc2ccccc2)CC1 (stereo not given)	Non-toxic	31.8%	–
COc1ccccc1OCC(O)CN1CCN(CC(O)C(C)c2cccc(F)c2)CC1 (stereo not given)	Non-toxic	52.8%	–
